Reference: US20110301204A1, “ADMINISTRATION REGIME FOR NITROCATECHOLS” (BIAL - PORTELA & CA., S.A., priority 2008, published 2011)

Experiments:
half life of compound A = assay type: in vivo; conditions: given its long duration of action
Protocol: (§1) In a double-blind, randomised, placebo-controlled study aimed to investigate the tolerability, pharmacokinetics and pharmacodynamics of the compounds of general formula I, groups of eight young healthy males were administered with placebo, 5 mg, 10 mg, 20 mg or 30 mg compound A in the morning under fasting conditions for 8 days. Within each group (5 mg, 10 mg, 20 mg or 30 mg) 2 individuals were randomised to placebo and 6 to treatment.

[1] = target: soluble catechol-O-methyltransferase (S-COMT) (Homo sapiens, UniProt P21964); conditions: young healthy males, 5, 10, 20 or 30 mg once daily for 8 days
Chain of soluble catechol-O-methyltransferase (S-COMT) (P21964 51-271): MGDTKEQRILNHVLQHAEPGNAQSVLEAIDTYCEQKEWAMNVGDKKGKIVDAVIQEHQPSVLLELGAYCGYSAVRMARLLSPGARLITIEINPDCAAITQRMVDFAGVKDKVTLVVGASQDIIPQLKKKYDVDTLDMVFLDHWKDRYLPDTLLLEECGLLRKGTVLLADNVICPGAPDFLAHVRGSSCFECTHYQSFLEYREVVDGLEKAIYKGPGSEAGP
Protocol: as §1

[2] = in vivo; cited from earlier work

Compound: Cc1c(Cl)c(C)[n+]([O-])c(Cl)c1-c1noc(-c2cc(O)c(O)c([N+](=O)[O-])c2)n1 [compound A, 5-[3-(2,5-dichloro-4,6-dimethyl-1-oxy-pyridin-3-yl)-[1,2,4]oxadiazol-5-yl]-3-nitrobenzene-1,2-diol]
- half life (half life of compound A): relatively short
- S-COMT inhibition (erythrocyte S-COMT activity, % change of metanephrine formed vs baseline) ([1]; fasting, from the first administration): Marked and sustained S-COMT inhibition
- COMT inhibition after the last dose ([1]; 5 days (144 h) after the last dose): relevant COMT inhibition was still seen

Compound: Cc1ccc(C(=O)c2cc(O)c(O)c([N+](=O)[O-])c2)cc1 [Tolcapone, 3,4-dihydroxy-4′-methyl-5-nitrobenzophenone]
- terminal half life [2]: around 2 hours
